Experimental data: patent publication US4396550A, “Dibenz [b,e] oxepin derivatives” (Kyowa Hakko Kogyo Co., Ltd., priority 1980, dated 1983)

How the values were obtained:
male dd-strain rats = experiment: Acute toxicity test (minimum lethal dose); format: in vivo; conditions: mortality for 7 days
Method: Groups of male dd-strain rats (each group consisting of five rats) weighing 20±1 g were used. The compounds of the present invention were administered orally (po: 0.3 mg/g) or intraperitoneally (ip: 0.1 mg/g). The MLD (minimum lethal dose) was calculated from the mortality for 7 days after the administration to obtain the results given in Table 1.

[1] = test system: isolated ileum of guinea-pig; experiment: Test for anticholinergic effects on the isolated ileum of guinea-pig (acetylcholine contraction, in vitro); set-up: species or system guinea-pig (male Hartly-strain); conditions: Cavia porcellus, 0.05 h; depressing ratio of 80% or more of acetylcholine contraction; compound 3 minutes before; read-out: Anticholinergic activity: MED (minimum effective dose)
Method: (§1) Male Hartly-strain guinea-pigs weighing about 250 g are killed and the abdomen is opened. The part (2-3 cm in length) of the ileum 10 cm away from the caecum to the pylorus is cut off as a preparation. The preparation is suspended with serre-fine in a Magnus bath containing 10 ml of Tyrode's solution at 32±1° C. under an air bubble. The contraction of the ileum is recorded on Kymograph through hebel when 0.1 ml of acetylcholine at a concentration of 10^-3 g/ml is added to the Tyrode's solution.
(§2) On the other hand, 3 minutes after administration of the test compounds, the same procedure as mentioned above is carried out to record the contraction.

[2] = test system: isolated ileum of guinea-pig; experiment: Test for antihistaminergic effects on the isolated ileum of guinea-pig (histamine contraction, in vitro); set-up: species or system guinea-pig (male Hartly-strain); conditions: Cavia porcellus, 0.05 h; depressing ratio of 80% or more of histamine contraction; read-out: Antihistaminergic activity: MED
Method: as §1, §2
In this test, 0.1 ml of histamine at a concentration of 5×10^-3 g/l is used.

[3] = test system: blood platelets (platelet-rich plasma); experiment: Test for the inhibition of platelet aggregation (collagen-induced, platelet-rich plasma); format: cell-based, male white rabbits; conditions: Oryctolagus cuniculus, Platelet, 0.05 h; depressing ratio of 50% of collagen-induced aggregation; compound 3 minutes before; read-out: Antiplatelet aggregation activity: MED
Method: In this test, 9 vols. of blood are sampled from the caroted artery of male white rabbits weighing 2 to 2.5 kg and placed in a silicon-coated flask containing 1 vol. of 3.8% sodium citrate. The thus obtained blood is centrifuged at 1,000 rpm for 15 minutes to obtain platelet-rich plasma. The aggregation of the blood platelets is observed using an aggregometer, when collagen is added to the platelet-rich plasma to the extent of the final concentration that 50% of platelet aggregation is caused in the presence of 100 γ/ml of aspirin. On the other hand, 3 minutes after administration of the test compounds to the platelet-rich plasma, the same procedure as mentioned above is carried out to observe the aggregation of blood platelet. The test compounds showing a depressing ratio of 50%, compared with the inhibition of aggregation by collagen alone, are concluded to have antiplatelet aggregation activity.

Structure (SMILES) | Acute toxicity: MLD (minimum lethal dose) (male dd-strain rats; ip) [mg/kg] | Acute toxicity: MLD (minimum lethal dose) (male dd-strain rats; po) [mg/kg] | minimal effective concentration [1] [µg/mL] | minimal effective concentration [2] [µg/mL] | minimal effective concentration [3] [µg/mL]
CCN(CC)CCCNC1c2ccccc2COc2ccc(C)cc21 (centres unmarked) [Compound 4, 2-methyl-11-{3-(diethylamino)propyl}amino-6,11-dihydrodibenz[b,e]oxepin] | 100 | 300 | 10 | 10 | 20
c1ccc(-c2ccc3c(c2)C(NC2CN4CCC2CC4)c2ccccc2CO3)cc1 (centres unmarked) [Compound 55, 2-phenyl-11-(3-quinuclidinyl)amino-6,11-dihydrodibenz[b,e]oxepin] | > 100 | > 300 | 3 | 1 | 20
Cc1cccc2c1OCc1ccccc1C2N1CCN(CCO)CC1 (centres unmarked) [Compound 41, 4-methyl-11-{4-(2-hydroxyethyl)-1-piperazinyl}-6,11-dihydrodibenz[b,e]oxepin] | > 100 | > 300 | – | – | 100
CCN(CC)CCNC1c2ccccc2COc2c(C)cccc21 (centres unmarked) [Compound 12, 4-methyl-11-{2-(diethylamino)ethyl}amino-6,11-dihydrodibenz[b,e]oxepin] | 100 | > 300 | – | – | 10
Fc1ccc(C(c2ccc(F)cc2)N2CCN(C3c4ccccc4COc4ccc(F)cc43)CC2)cc1 (centres unmarked) [Compound 43, 2-fluoro-11-[4-{bis-(4-fluorophenyl)}methyl-1-piperazinyl]-6,11-dihydrodibenz[b,e]oxepin] | > 100 | > 300 | – | – | 100
Cc1ccc2c(c1)C(N1CCC3(CC1)OCCO3)c1ccccc1CO2 (centres unmarked) [Compound 65, 2-methyl-11-(1',3'-dioxoran-2-'spiro-4-piperidino)-6,11-dihydrodibenz[b,e]oxepin] | > 100 | > 300 | – | 10 | –
Fc1ccc2c(c1)C(NCCN(Cc1ccccc1)Cc1ccccc1)c1ccccc1CO2 (centres unmarked) [Compound 34, 2-fluoro-11-{2-(dibenzylamino)ethyl}amino-6,11-dihydrodibenz[b,e]oxepin] | > 100 | 300 | – | 10 | –
c1ccc2c(c1)COc1ccc(C3CCCCC3)cc1C2NC1CN2CCC1CC2 (centres unmarked) [Compound 54, 2-cyclohexyl-11-(3-quinuclidinyl)amino-6,11-dihydrodibenz[b,e]oxepin] | 100 | > 300 | 10 | 1 | –
Fc1ccc2c(c1)C(NCCOC(c1ccccc1)c1ccccc1)c1ccccc1CO2 (centres unmarked) [Compound 33, 2-fluoro-11-{2-(diphenylmethyloxy)ethyl}amino-6,11-dihydrodibenz[b,e]oxepin] | > 100 | > 300 | – | – | 100
CCc1ccc2c(c1)C(Nc1cccc3ncccc13)c1ccccc1CO2 (centres unmarked) [Compound 61, 2-ethyl-11-(5-quinolyl)amino-6,11-dihydrodibenz[b,e]oxepin] | > 100 | > 300 | – | 10 | –
CC(CCc1ccccc1)NC1c2ccccc2COc2ccc(F)cc21 (centres unmarked) [Compound 32, 2-fluoro-11-{(1-methyl-3-phenyl)propyl}amino-6,11-dihydrodibenz[b,e]oxepin] | > 100 | > 300 | 3 | – | –
CCN(CCN(C)C)C1c2ccccc2COc2ccc(C)cc21 (centres unmarked) [Compound 64, 2-methyl-11-[N-{2-(dimethylamino)ethyl}-N-ethyl]amino-6,11-dihydrodibenz[b,e]oxepin] | > 100 | > 300 | 10 | 10 | –
Cc1ccc2c(c1)C(Nc1ccc3[nH]ccc3c1)c1ccccc1CO2 (centres unmarked) [Compound 62, 2-methyl-11-(5-indolyl)amino-6,11-dihydrodibenz[b,e]oxepin] | > 100 | > 300 | – | – | 50
Fc1ccc(C(NC2c3ccccc3COc3ccc(F)cc32)c2ccc(F)cc2)cc1 (centres unmarked) [Compound 31, 2-fluoro-11-{bis-(4-fluorophenyl)methyl}amino-6,11-dihydrodibenz[b,e]oxepin] | > 100 | > 300 | – | – | 100
COc1ccc(CCNC2c3ccccc3COc3ccc(F)cc32)cc1OC (centres unmarked) [Compound 60, 2-fluoro-11-{2-(3,4-dimethoxyphenyl)ethyl}amino-6,11-dihydrodibenz[b,e]oxepin] | > 100 | > 300 | – | 10 | –
NCCN1CCN(C2c3ccccc3COc3ccc(F)cc32)CC1 (centres unmarked) [Compound 46, 2-fluoro-11-{4-(2-aminoethyl)-1-piperazinyl}-6,11-dihydrodibenz[b,e]oxepin] | > 100 | > 300 | – | 1 | 50
Cc1ccc2c(c1)C(N1CCN(CCN)CC1)c1ccccc1CO2 (centres unmarked) [Compound 44, 2-methyl-11-{4-(2-aminoethyl)-1-piperazinyl}-6,11-dihydrodibenz[b,e]oxepin] | 100 | > 300 | 10 | 10 | –
Cc1ccc2c(c1)C(NN1CCN(C)CC1)c1ccccc1CO2 (centres unmarked) [Compound 29, 2-methyl-11-(4-methyl-1-piperazinyl)amino-6,11-dihydrodibenz[b,e]oxepin] | > 100 | > 300 | – | 10 | 50
CCN(CC)CCCNC1c2ccccc2COc2ccc(OC)cc21 (centres unmarked) [Compound 7, 2-methoxy-11-{3-(diethylamino)propyl}amino-6,11-dihydrodibenz[b,e]oxepin] | 100 | > 300 | 0.3 | 0.3 | –
OCCN1CCN(C2c3ccccc3COc3c(-c4ccccc4)cccc32)CC1 (centres unmarked) [Compound 42, 4-phenyl-11-{4-(2-hydroxyethyl)-1-piperazinyl}-6,11-dihydrodibenz[b,e]oxepin] | > 100 | > 300 | – | – | 100
Fc1ccc2c(c1)C(NCC1COc3ccccc3O1)c1ccccc1CO2 (centres unmarked) [Compound 30, 2-fluoro-11-{(1,4-benzodioxane-2-)methyl}amino-6,11-dihydrodibenz[b,e]oxepin] | > 100 | > 300 | 10 | 10 | –
